Legend:
Cell viability MTT assay = assay type: cell-based, human; settings: human, MCF7 cells, maintained throughout the different concentrations (10-100 μg/ml), curcumin stock 390 μg/ml
Protocol: (§1) Materials and Methods/Cell cultures: In this study, a human mammary adenocarcinoma cell line, MCF7, was used for in vitro testing. MCF7 cells were maintained in DMEM (Dulbecco's Modified Eagle Medium) (Gibco, life technologies) supplemented with 10% heat inactivated fetal bovine serum (HI-FBS) (Gibco, life technology), 1% Penicillin Streptomycin (100×-Gibco, life technology), and 1% MEM NEAA (MEM non-essential amino acids) (100×-Gibco, life technology). Cells were kept in a humidified incubator at 37° C. with 5% CO2. For the experimental setup, MCF7 cells were seeded on a 96-well plate at a density of 10,000 cells/well. On the next day, cells were shifted to the starve media (0.5% HI-FBS containing media) for 24 h before treatment. […]
(§2) Cell viability MTT Assay: The viability of cells was tested using 3-(4,5-dimethylthiazol-2-yl)-2,5-diphenyltetrazolium bromide (MTT) assay. […] The change in color intensity was measured at 570 nm wavelength using SYNERGY-neo2 BioTek ELISA reader. […] The reading of each triplicate was averaged and subtracted from the averaged MTT background control reading. […]
(§3) To investigate the cytotoxic effects of curcumin-loaded/Fe2O3 impregnated mesocellular foam silica nanoparticles, the inventors assessed cell viability using the MTT assay on MCF7 cells. […]

MCF7 cells = assay: Cell viability MTT assay; assay type: cell-based, human; settings: 10, 20, 40, 80, 100 μg/ml, 24 h
Protocol: as §1, §2, §3

COc1cc(/C=C/C(=O)CC(=O)/C=C/c2ccc(O)c(OC)c2)ccc1O [Curcumin]
viability at 24 h (Cell viability MTT assay): 66.6% | effect on cell viability (in words) (MCF7 cells): significantly reduced cell viability
